Measured values published in patent US8192962B2, “Processes for detecting toxic substances” (Daikin Industries, Ltd., priority 2001, dated 2012).

System: Stress protein genes
Experiment: DNA chip mRNA expression in yeast, stress protein genes (Table 6)
Type: cell-based, Saccharomyces cerevisiae S288C
Procedure, shortened: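 Cells were grown at 25° C. in YPD, treated at logarithmic phase for 2 h with a chemical at a concentration inhibiting growth but not causing death, and compared with untreated cultures. Labeled cDNA was hybridized to a DNA chip carrying all yeast genes, and the expression ratio was taken from scanner fluorescence.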

N#Cc1c(Cl)c(Cl)c(Cl)c(C#N)c1Cl [(9), 2,4,5,6-tetrachloro-1,3-benzenedicarbonitrile]
The level of expressed mRNA in the presence of chemical substance/The level of expressed mRNA in the absence of chemical substance (yeast gene YAL005C): 3.9 | The level of expressed mRNA in the presence of chemical substance/The level of expressed mRNA in the absence of chemical substance (yeast gene YAL015C): 4.0 | The level of expressed mRNA in the presence of chemical substance/The level of expressed mRNA in the absence of chemical substance (yeast gene YBL075C): 60.3 | The level of expressed mRNA in the presence of chemical substance/The level of expressed mRNA in the absence of chemical substance (yeast gene YBL093C): 0.7 | The level of expressed mRNA in the presence of chemical substance/The level of expressed mRNA in the absence of chemical substance (yeast gene YBR044C): 0.8 | The level of expressed mRNA in the presence of chemical substance/The level of expressed mRNA in the absence of chemical substance (yeast gene YBR054W): 0.4 | The level of expressed mRNA in the presence of chemical substance/The level of expressed mRNA in the absence of chemical substance (yeast gene YBR067C): 1.7 | The level of expressed mRNA in the presence of chemical substance/The level of expressed mRNA in the absence of chemical substance (yeast gene YBR072W): 29.4 | The level of expressed mRNA in the presence of chemical substance/The level of expressed mRNA in the absence of chemical substance (yeast gene YBR126C): 1.7 | The level of expressed mRNA in the presence of chemical substance/The level of expressed mRNA in the absence of chemical substance (yeast gene YBR169C): 7.0 | The level of expressed mRNA in the presence of chemical substance/The level of expressed mRNA in the absence of chemical substance (yeast gene YCL035C): 1.9 | The level of expressed mRNA in the presence of chemical substance/The level of expressed mRNA in the absence of chemical substance (yeast gene YCR021C): 2.2 | The level of expressed mRNA in the presence of chemical substance/The level of expressed mRNA in the absence of chemical substance (yeast gene YCR060W): 0.7 | The level of expressed mRNA in the presence of chemical substance/The level of expressed mRNA in the absence of chemical substance (yeast gene YCR083W): 1.8 | The level of expressed mRNA in the presence of chemical substance/The level of expressed mRNA in the absence of chemical substance (yeast gene YDL022W): 1.2 | The level of expressed mRNA in the presence of chemical substance/The level of expressed mRNA in the absence of chemical substance (yeast gene YDL025C): 3.6 | The level of expressed mRNA in the presence of chemical substance/The level of expressed mRNA in the absence of chemical substance (yeast gene YDR033W): 0.3 | The level of expressed mRNA in the presence of chemical substance/The level of expressed mRNA in the absence of chemical substance (yeast gene YDR077W): 0.7 | The level of expressed mRNA in the presence of chemical substance/The level of expressed mRNA in the absence of chemical substance (yeast gene YDR098C): 3.7 | The level of expressed mRNA in the presence of chemical substance/The level of expressed mRNA in the absence of chemical substance (yeast gene YDR155C): 1.3 | The level of expressed mRNA in the presence of chemical substance/The level of expressed mRNA in the absence of chemical substance (yeast gene YDR258C): 4.9 | The level of expressed mRNA in the presence of chemical substance/The level of expressed mRNA in the absence of chemical substance (yeast gene YDR293C): 1.2 | The level of expressed mRNA in the presence of chemical substance/The level of expressed mRNA in the absence of chemical substance (yeast gene YDR436W): 3.5 | The level of expressed mRNA in the presence of chemical substance/The level of expressed mRNA in the absence of chemical substance (yeast gene YDR513W): 4.6 | The level of expressed mRNA in the presence of chemical substance/The level of expressed mRNA in the absence of chemical substance (yeast gene YDR519W): 0.5 | The level of expressed mRNA in the presence of chemical substance/The level of expressed mRNA in the absence of chemical substance (yeast gene YEL030W): 2.3 | The level of expressed mRNA in the presence of chemical substance/The level of expressed mRNA in the absence of chemical substance (yeast gene YEL039C): 1.2 | The level of expressed mRNA in the presence of chemical substance/The level of expressed mRNA in the absence of chemical substance (yeast gene YER042W): 6.8 | The level of expressed mRNA in the presence of chemical substance/The level of expressed mRNA in the absence of chemical substance (yeast gene YER057C): 0.6 | The level of expressed mRNA in the presence of chemical substance/The level of expressed mRNA in the absence of chemical substance (yeast gene YER103W): 20.3 | The level of expressed mRNA in the presence of chemical substance/The level of expressed mRNA in the absence of chemical substance (yeast gene YER125W): 0.6 | The level of expressed mRNA in the presence of chemical substance/The level of expressed mRNA in the absence of chemical substance (yeast gene YFL014W): 13.1 | The level of expressed mRNA in the presence of chemical substance/The level of expressed mRNA in the absence of chemical substance (yeast gene YFL016C): 6.4 | The level of expressed mRNA in the presence of chemical substance/The level of expressed mRNA in the absence of chemical substance (yeast gene YFL020C): 1.3 | The level of expressed mRNA in the presence of chemical substance/The level of expressed mRNA in the absence of chemical substance (yeast gene YFR052W): 3.7 | The level of expressed mRNA in the presence of chemical substance/The level of expressed mRNA in the absence of chemical substance (yeast gene YGL073W): 1.9 | The level of expressed mRNA in the presence of chemical substance/The level of expressed mRNA in the absence of chemical substance (yeast gene YGL115W): 1.2 | The level of expressed mRNA in the presence of chemical substance/The level of expressed mRNA in the absence of chemical substance (yeast gene YGL181W): 2.7 | The level of expressed mRNA in the presence of chemical substance/The level of expressed mRNA in the absence of chemical substance (yeast gene YGR088W): 1.5 | The level of expressed mRNA in the presence of chemical substance/The level of expressed mRNA in the absence of chemical substance (yeast gene YHL028W): 0.2 | The level of expressed mRNA in the presence of chemical substance/The level of expressed mRNA in the absence of chemical substance (yeast gene YHL046C): 1.0 | The level of expressed mRNA in the presence of chemical substance/The level of expressed mRNA in the absence of chemical substance (yeast gene YHR030C): 0.6 | The level of expressed mRNA in the presence of chemical substance/The level of expressed mRNA in the absence of chemical substance (yeast gene YHR057C): 2.6 | The level of expressed mRNA in the presence of chemical substance/The level of expressed mRNA in the absence of chemical substance (yeast gene YHR104W): 4.8 | The level of expressed mRNA in the presence of chemical substance/The level of expressed mRNA in the absence of chemical substance (yeast gene YIL011W): 0.0 | The level of expressed mRNA in the presence of chemical substance/The level of expressed mRNA in the absence of chemical substance (yeast gene YIL033C): 2.4 | The level of expressed mRNA in the presence of chemical substance/The level of expressed mRNA in the absence of chemical substance (yeast gene YIR037W): 6.2 | The level of expressed mRNA in the presence of chemical substance/The level of expressed mRNA in the absence of chemical substance (yeast gene YIR038C): 4.6 | The level of expressed mRNA in the presence of chemical substance/The level of expressed mRNA in the absence of chemical substance (yeast gene YJL128C): 2.0 | The level of expressed mRNA in the presence of chemical substance/The level of expressed mRNA in the absence of chemical substance (yeast gene YJL158C): 0.2 | The level of expressed mRNA in the presence of chemical substance/The level of expressed mRNA in the absence of chemical substance (yeast gene YJL159W): 0.5 | The level of expressed mRNA in the presence of chemical substance/The level of expressed mRNA in the absence of chemical substance (yeast gene YJL165C): 2.8 | The level of expressed mRNA in the presence of chemical substance/The level of expressed mRNA in the absence of chemical substance (yeast gene YJR045C): 3.2 | The level of expressed mRNA in the presence of chemical substance/The level of expressed mRNA in the absence of chemical substance (yeast gene YJR090C): 1.9 | The level of expressed mRNA in the presence of chemical substance/The level of expressed mRNA in the absence of chemical substance (yeast gene YKL161C): 1.4 | The level of expressed mRNA in the presence of chemical substance/The level of expressed mRNA in the absence of chemical substance (yeast gene YKL163W): 0.7 | The level of expressed mRNA in the presence of chemical substance/The level of expressed mRNA in the absence of chemical substance (yeast gene YKL164C): 0.4 | The level of expressed mRNA in the presence of chemical substance/The level of expressed mRNA in the absence of chemical substance (yeast gene YKL210W): 3.5 | The level of expressed mRNA in the presence of chemical substance/The level of expressed mRNA in the absence of chemical substance (yeast gene YKR053C): 0.8 | The level of expressed mRNA in the presence of chemical substance/The level of expressed mRNA in the absence of chemical substance (yeast gene YLL024C): 2.8 | The level of expressed mRNA in the presence of chemical substance/The level of expressed mRNA in the absence of chemical substance (yeast gene YLL026W): 11.4 | The level of expressed mRNA in the presence of chemical substance/The level of expressed mRNA in the absence of chemical substance (yeast gene YLL039C): 3.4 | The level of expressed mRNA in the presence of chemical substance/The level of expressed mRNA in the absence of chemical substance (yeast gene YLL060C): 13.0 | The level of expressed mRNA in the presence of chemical substance/The level of expressed mRNA in the absence of chemical substance (yeast gene YLR006C): 1.1 | The level of expressed mRNA in the presence of chemical substance/The level of expressed mRNA in the absence of chemical substance (yeast gene YLR109W): 2.4 | The level of expressed mRNA in the presence of chemical substance/The level of expressed mRNA in the absence of chemical substance (yeast gene YLR259C): 1.8 | The level of expressed mRNA in the presence of chemical substance/The level of expressed mRNA in the absence of chemical substance (yeast gene YML007W): 2.1 | The level of expressed mRNA in the presence of chemical substance/The level of expressed mRNA in the absence of chemical substance (yeast gene YML070W): 4.5 | The level of expressed mRNA in the presence of chemical substance/The level of expressed mRNA in the absence of chemical substance (yeast gene YMR021C): 0.6 | The level of expressed mRNA in the presence of chemical substance/The level of expressed mRNA in the absence of chemical substance (yeast gene YMR173W): 2.7 | The level of expressed mRNA in the presence of chemical substance/The level of expressed mRNA in the absence of chemical substance (yeast gene YMR186W): 2.6 | The level of expressed mRNA in the presence of chemical substance/The level of expressed mRNA in the absence of chemical substance (yeast gene YNL064C): 2.4 | The level of expressed mRNA in the presence of chemical substance/The level of expressed mRNA in the absence of chemical substance (yeast gene YNL160W): 3.5 | The level of expressed mRNA in the presence of chemical substance/The level of expressed mRNA in the absence of chemical substance (yeast gene YNL241C): 3.4 | The level of expressed mRNA in the presence of chemical substance/The level of expressed mRNA in the absence of chemical substance (yeast gene YNR076W): 1.3 | The level of expressed mRNA in the presence of chemical substance/The level of expressed mRNA in the absence of chemical substance (yeast gene YOL064C): 8.7 | The level of expressed mRNA in the presence of chemical substance/The level of expressed mRNA in the absence of chemical substance (yeast gene YOL161C): 0.7 | The level of expressed mRNA in the presence of chemical substance/The level of expressed mRNA in the absence of chemical substance (yeast gene YOR008C): 1.9 | The level of expressed mRNA in the presence of chemical substance/The level of expressed mRNA in the absence of chemical substance (yeast gene YOR009W): 0.4 | The level of expressed mRNA in the presence of chemical substance/The level of expressed mRNA in the absence of chemical substance (yeast gene YOR010C): 0.6 | The level of expressed mRNA in the presence of chemical substance/The level of expressed mRNA in the absence of chemical substance (yeast gene YOR027W): 3.5 | The level of expressed mRNA in the presence of chemical substance/The level of expressed mRNA in the absence of chemical substance (yeast gene YOR208W): 1.5 | The level of expressed mRNA in the presence of chemical substance/The level of expressed mRNA in the absence of chemical substance (yeast gene YPL059W): 2.0 | The level of expressed mRNA in the presence of chemical substance/The level of expressed mRNA in the absence of chemical substance (yeast gene YPL106C): 4.9 | The level of expressed mRNA in the presence of chemical substance/The level of expressed mRNA in the absence of chemical substance (yeast gene YPL140C): 0.9 | The level of expressed mRNA in the presence of chemical substance/The level of expressed mRNA in the absence of chemical substance (yeast gene YPL194W): 9.6 | The level of expressed mRNA in the presence of chemical substance/The level of expressed mRNA in the absence of chemical substance (yeast gene YPL223C): 29.4 | The level of expressed mRNA in the presence of chemical substance/The level of expressed mRNA in the absence of chemical substance (yeast gene YPL240C): 3.5 | The level of expressed mRNA in the presence of chemical substance/The level of expressed mRNA in the absence of chemical substance (yeast gene YPR005C): 2.8 | The level of expressed mRNA in the presence of chemical substance/The level of expressed mRNA in the absence of chemical substance (yeast gene YPR026W): 0.9
